Reference: patent publication US20080214557A1, “METHOD FOR PREPARATION OF PHARMACEUTICAL COMPOSITION HAVING IMPROVED DISINTEGRATABILITY AND PHARMACEUTICAL COMPOSITION MANUFACTURED BY SAME METHOD” (Eisai R&D Management Co., Ltd., priority 2005, published 2008)

Test: pH of 2.5 wt % aqueous solutions of the salts in purified water
Assay type: physicochemical
Conditions: 2.5 wt % aqueous solution in purified water

| Molecule | pH of 2.5% salt solution |
| --- | --- |
| anhydrous sodium acetate [CH3CO2Na(anhydrous)] | 8.25 |
| [Cl-].[Na+] [NaCl, sodium chloride] | 5.69 |
| Cl.N [NH4Cl, ammonium chloride] | 4.97 |
| O=P([O-])([O-])O.[Na+].[Na+] [Na2HPO4(anhydrous), anhydrous disodium hydrogen phosphate] | 8.90 |
| O=C([O-])[O-].[Na+].[Na+] [Na2CO3(anhydrous), anhydrous sodium carbonate] | 11.31 |
| [Ca+2].[Cl-].[Cl-] [CaCl2(anhydrous), anhydrous calcium chloride] | 8.40 |
| NCC(=O)O [Glycine, glycine] | 6.12 |
| O=C([O-])O.[Na+] [NaHCO3(anhydrous), anhydrous sodium bicarbonate] | 8.09 |
| [Cl-].[K+] [KCl, potassium chloride] | 6.05 |
